Results as given in patent US11214803B2, “Modulators of YAP1 expression” (Ionis Pharmaceuticals, Inc., priority 2019, dated 2022).
Strand notation (5' to 3'): a small letter for the sugar, then the base; units joined by * are phosphorothioate-linked, units joined directly phosphodiester-linked; [ ] holds rarer units or linkages, { } end groups; capitals alone tell only the bases. k = constrained ethyl (cEt); [5mC] = 5-methylcytosine; d = 2'-deoxy (DNA)

Tested on: Yap1 mRNA
Experiment: Antisense inhibition of human Yap1 in A-431 cells by cEt gapmers, single dose (Example 3, RTS36584)
Type: cell-based
How it was run: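 Values are % untreated control: Yap1 mRNA by quantitative RT-PCR (RTS36584), normalized to total RNA by RiboGreen. Before RNA isolation, 5,000 A-431 cells per well were exposed ~48 h to 2,000 nM 16-mer cEt gapmer, delivered without transfection reagent.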

[1] = Table 11, A-431 cells, 5,000 cells per well, free uptake, 2,000 nM oligonucleotide, approx. 48 hours, primer probe set RTS36584, Yap1 mRNA normalized to RIBOGREEN, percent of untreated control
[2] = Table 12, A-431 cells, 5,000 cells per well, free uptake, 2,000 nM modified oligonucleotide, approx. 48 hours, RTS36584, normalized to RIBOGREEN, Yap1 mRNA relative to untreated control cells
[3] = Table 26, Yap1 mRNA by 3-10-3 cEt gapmers targeting SEQ ID NO.: 1, and 2, percent of untreated control
[4] = Table 9, A-431 cells, 5,000 cells per well, free uptake, 2,000 nM, approximately 48 hours, RTS36584, normalized to RIBOGREEN, Yap1 mRNA relative to untreated control cells
[5] = Table 35, Yap1 mRNA as percent of untreated control, 3-10-3 cEt gapmers targeting SEQ ID NO: 1 and 2, single dose
[6] = Table 34, Yap1 mRNA as percent of untreated control, 3-10-3 cEt gapmers targeting SEQ ID NO: 1 and 2, single dose
[7] = Table 8, A-431 cells, 5,000 cells per well, free uptake, 2,000 nM, approximately 48 hours, RTS36584, normalized to RIBOGREEN, Yap1 mRNA relative to untreated control cells
[8] = Table 13, A-431 cells, 5,000 cells per well, free uptake, 2,000 nM modified oligonucleotide, approx. 48 hours, RTS36584, normalized to RIBOGREEN, Yap1 mRNA relative to untreated control cells
[9] = Table 27, Yap1 mRNA by 3-10-3 cEt gapmers targeting SEQ ID NO.: 1, and 2, percent of untreated control
[10] = Table 29, Yap1 mRNA as percent of untreated control, 3-10-3 cEt gapmers targeting SEQ ID NO.: 1, and 2
[11] = Table 10, A-431 cells, 5,000 cells per well, free uptake, 2,000 nM oligonucleotide, approx. 48 hours, primer probe set RTS36584, Yap1 mRNA normalized to RIBOGREEN, percent of untreated control
[12] = Table 28, Yap1 mRNA as percent of untreated control, 3-10-3 cEt gapmers targeting SEQ ID NO.: 1, and 2

958743 (antisense kG*kA*k[5mC]*dT*dA*dT*dA*dA*dA*dG*dG*dG*dT*kT*kT*kA) [Compound 958743]
YAP1 (% UTC) [1]: 30 % UTC

958749 (antisense k[5mC]*k[5mC]*kA*d[5mC]*dA*dA*dG*dG*dG*d[5mC]*dA*dG*dT*kA*k[5mC]*kG) [Compound 958749]
YAP1 (% UTC) [2]: 51 % UTC

1074604 (DNA kT*kT*kA*dT*dT*dA*dA*dT*d[5mC]*dT*dG*dA*dT*k[5mC]*kA*k[5mC]) [compound 1074604]
YAP1 (% UTC) [3]: 12 % UTC

958526 (kA*kG*kT*dA*dA*dG*dA*dA*d[5mC]*dA*dA*dT*d[5mC]*kT*kT*kG; antisense) [Compound 958526]
YAP1 (% UTC) [4]: 6 % UTC

1075756 (kA*kT*kT*dT*dA*d[5mC]*d[5mC]*d[5mC]*dT*dG*d[5mC]*d[5mC]*dA*k[5mC]*kT*kT; antisense) [compound 1075756]
YAP1 (% UTC) [3]: 49 % UTC

1076309 (kG*kA*kT*dA*dA*d[5mC]*dT*dT*dT*d[5mC]*d[5mC]*dA*d[5mC]*kA*kA*kT; antisense) [compound 1076309]
YAP1 (% UTC) [5]: 9 % UTC

1076532 (kA*kT*kT*dT*dT*dT*dA*dG*dG*d[5mC]*dA*dG*dA*k[5mC]*kG*k[5mC]; antisense) [compound 1076532]
YAP1 (% UTC) [6]: 12 % UTC

1076204 (kG*kA*kT*dA*dA*dT*dG*dA*dA*dT*d[5mC]*d[5mC]*dT*kT*kG*kT; antisense) [compound 1076204]
YAP1 (% UTC) [3]: 11 % UTC

958668 (kG*kT*kG*dA*dT*d[5mC]*dT*dG*dT*dG*dA*dG*dA*kG*kG*kT; antisense) [Compound 958668]
YAP1 (% UTC) [1]: 2 % UTC

958696 (antisense kG*k[5mC]*kA*dT*dA*d[5mC]*dT*dA*d[5mC]*dA*d[5mC]*dT*dA*kT*kA*kA) [Compound 958696]
YAP1 (% UTC) [4]: 56 % UTC

958371 (antisense kA*k[5mC]*k[5mC]*dA*dA*d[5mC]*dT*dA*dT*dT*dA*d[5mC]*dT*kT*k[5mC]*kA) [Compound 958371]
YAP1 (% UTC) [7]: 2 % UTC

958660 (k[5mC]*k[5mC]*k[5mC]*dA*d[5mC]*dT*dG*dG*dG*dT*dT*dT*dG*kT*k[5mC]*k[5mC]; antisense) [Compound 958660]
YAP1 (% UTC) [8]: 106 % UTC

1074572 (DNA kT*kT*kA*dT*dG*dA*dA*d[5mC]*d[5mC]*dT*dA*d[5mC]*dT*k[5mC]*kA*k[5mC]) [compound 1074572]
YAP1 (% UTC) [3]: 17 % UTC

958756 (antisense kG*kT*kG*dT*dT*dG*d[5mC]*dA*dT*dG*dA*d[5mC]*dA*kG*k[5mC]*k[5mC]) [Compound 958756]
YAP1 (% UTC) [4]: 15 % UTC

1075501 (k[5mC]*kA*kT*dA*dA*dA*dT*dT*dA*dA*dG*d[5mC]*d[5mC]*kA*kA*k[5mC]; antisense) [compound 1075501]
YAP1 (% UTC) [9]: 67 % UTC

958628 (antisense kG*k[5mC]*kT*dA*dA*d[5mC]*dT*dA*d[5mC]*dA*dT*dT*dG*k[5mC]*kA*kG) [Compound 958628]
YAP1 (% UTC) [1]: 81 % UTC

958745 (antisense kT*k[5mC]*k[5mC]*d[5mC]*dA*dG*d[5mC]*d[5mC]*dG*d[5mC]*dA*dT*dG*kG*k[5mC]*kT) [Compound 958745]
YAP1 (% UTC) [8]: 78 % UTC

958380 (antisense k[5mC]*kG*k[5mC]*dG*d[5mC]*d[5mC]*d[5mC]*dG*d[5mC]*d[5mC]*d[5mC]*dG*d[5mC]*kA*k[5mC]*k[5mC]) [Compound 958380]
YAP1 (% UTC) [7]: 106 % UTC

958406 (antisense kT*kT*kT*d[5mC]*dA*dG*dT*dT*dA*dT*d[5mC]*dG*dG*k[5mC]*k[5mC]*k[5mC]) [Compound 958406]
YAP1 (% UTC) [7]: 29 % UTC

1075887 (antisense kT*kA*kT*dT*dA*d[5mC]*dT*dT*dG*dA*dT*dT*dG*kA*k[5mC]*kA) [compound 1075887]
YAP1 (% UTC) [10]: 10 % UTC

1075373 (antisense kT*kA*kT*dA*dT*dA*dT*dA*dG*dA*d[5mC]*dT*dT*kG*kA*kG) [compound 1075373]
YAP1 (% UTC) [9]: 13 % UTC

958567 (kT*k[5mC]*kA*dA*d[5mC]*d[5mC]*dT*dA*dT*dG*dA*dA*d[5mC]*kT*kA*kT; antisense) [Compound 958567]
YAP1 (% UTC) [11]: 3 % UTC

958783 (antisense kT*kG*kA*dT*d[5mC]*dT*dG*dA*dT*dG*d[5mC]*dT*dT*kG*k[5mC]*kT) [Compound 958783]
YAP1 (% UTC) [1]: 35 % UTC

1076559 (kA*kA*k[5mC]*dA*dA*dA*dT*dA*dT*dA*dG*dT*dT*kA*kG*k[5mC]; antisense) [compound 1076559]
YAP1 (% UTC) [10]: 74 % UTC

958454 (antisense kG*kG*kA*dA*dT*dG*dA*dG*d[5mC]*dT*d[5mC]*dG*dA*kA*k[5mC]*kA) [Compound 958454]
YAP1 (% UTC) [2]: 3 % UTC

1074925 (antisense kG*k[5mC]*k[5mC]*dT*dG*d[5mC]*dA*dA*dA*dT*dA*dG*dG*kA*kG*kA) [compound 1074925]
YAP1 (% UTC) [9]: 94 % UTC

958518 (k[5mC]*k[5mC]*kA*d[5mC]*dA*dG*dT*dA*dA*dT*dA*dG*d[5mC]*kT*k[5mC]*kT; antisense) [Compound 958518]
YAP1 (% UTC) [1]: 1 % UTC

958722 (antisense k[5mC]*kA*kT*dA*dA*dT*dA*dG*dG*dA*d[5mC]*dA*d[5mC]*kA*kA*k[5mC]) [Compound 958722]
YAP1 (% UTC) [11]: 59 % UTC

1075054 (antisense k[5mC]*kA*kA*dT*dA*dT*dA*dT*dA*d[5mC]*dT*dT*dG*kA*kT*k[5mC]) [compound 1075054]
YAP1 (% UTC) [12]: 48 % UTC

958639 (antisense kG*kT*kT*dA*dT*dG*dG*dG*dT*dG*d[5mC]*dT*dT*kT*kT*k[5mC]) [Compound 958639]
YAP1 (% UTC) [2]: 18 % UTC

958785 (antisense kG*k[5mC]*kA*dA*dT*d[5mC]*d[5mC]*dA*d[5mC]*dA*dA*dT*dT*k[5mC]*k[5mC]*kA) [Compound 958785]
YAP1 (% UTC) [8]: 2 % UTC

1075116 (k[5mC]*kT*kT*dA*dA*d[5mC]*dA*dT*dT*dT*dA*dA*dT*kG*kG*k[5mC]; antisense) [compound 1075116]
YAP1 (% UTC) [3]: 15 % UTC

1075764 (k[5mC]*kT*kT*d[5mC]*dA*dA*dG*dG*dA*dA*dG*dG*dT*kG*k[5mC]*kT; antisense) [compound 1075764]
YAP1 (% UTC) [6]: 103 % UTC

1074190 (antisense k[5mC]*kG*kG*d[5mC]*dG*dG*dG*d[5mC]*d[5mC]*d[5mC]*dT*dG*d[5mC]*k[5mC]*k[5mC]*k[5mC]) [compound 1074190]
YAP1 (% UTC) [12]: 114 % UTC

958604 (kA*k[5mC]*kG*d[5mC]*dT*dA*dG*dA*dA*dA*dA*dG*dT*kG*kT*kT; antisense) [Compound 958604]
YAP1 (% UTC) [2]: 94 % UTC

958754 (antisense k[5mC]*k[5mC]*kT*dT*dA*dG*dG*dA*dA*dG*dG*d[5mC]*dT*k[5mC]*k[5mC]*k[5mC]) [Compound 958754]
YAP1 (% UTC) [2]: 31 % UTC

1075790 (kT*k[5mC]*kA*dG*dA*dA*dG*dA*dA*d[5mC]*dT*d[5mC]*d[5mC]*k[5mC]*kA*kT; antisense) [compound 1075790]
YAP1 (% UTC) [12]: 14 % UTC

958680 (kA*kT*kT*dA*dA*d[5mC]*dA*d[5mC]*d[5mC]*dT*dG*dA*dG*k[5mC]*kT*kG; antisense) [Compound 958680]
YAP1 (% UTC) [8]: 50 % UTC

958436 (antisense kT*k[5mC]*k[5mC]*d[5mC]*dT*dT*dG*dA*d[5mC]*dG*dG*dA*dG*kG*k[5mC]*k[5mC]) [Compound 958436]
YAP1 (% UTC) [4]: 124 % UTC

958396 (antisense kA*kG*kG*d[5mC]*dT*dA*dT*dT*dA*dA*dG*d[5mC]*dT*kG*kT*kT) [Compound 958396]
YAP1 (% UTC) [7]: 131 % UTC

1075980 (k[5mC]*kA*kA*dT*dA*dT*d[5mC]*d[5mC]*dT*dA*d[5mC]*dA*d[5mC]*k[5mC]*kA*kT; antisense) [compound 1075980]
YAP1 (% UTC) [3]: 43 % UTC

1074197 (antisense kT*kG*k[5mC]*d[5mC]*d[5mC]*dG*dG*dG*dT*d[5mC]*d[5mC]*dG*dG*kA*k[5mC]*kG) [compound 1074197]
YAP1 (% UTC) [5]: 91 % UTC

958698 (antisense k[5mC]*kT*kT*dA*dT*dT*dA*dG*d[5mC]*d[5mC]*d[5mC]*dT*d[5mC]*kA*kA*kA) [Compound 958698]
YAP1 (% UTC) [1]: 30 % UTC
